{
  "source": "patent US8173133B2",
  "about": "“Acyl pseudodipeptides which carry a functionalized auxiliary arm” (OM Pharma, priority 1999, dated 2012)",
  "key": {"[1]": {"test_system": "murine macrophage cells", "assay": "nitric oxide production by murine macrophage cells (Griess)", "assay_type": "cell-based, C57/BL6 mice", "conditions": "for Max concentration: concentration at maximum amplitude; for EC50 conc: concentration corresponding to 50% of maximum amplitude; for Min concentration: lowest concentration inducing a significant response", "in_short": "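Bone-marrow macrophages from male C57/BL6 mice, differentiated 8 days with L929 supernatant, exposed to serially diluted compound for 22 h at 37 °C. Nitrite in supernatant measured by Griess reaction (562 nm vs 690 nm) against a standard curve. EC50 is concentration giving 50% of maximum amplitude, by line-segment interpolation.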"}, "[2]": {"test_system": "Limulus Amoebocyte Lysate"}, "[3]": {"test_system": "CD83, CD86 surface markers of predendritic cells (DC-6)", "assay": "dendritic cell differentiation test: CD83, CD86 surface marker expression", "assay_type": "cell-based, human", "conditions": "for CD86 % CD / CD86 Fluorescence: 10 μg/ml; for CD86 % CD: products redissolved in pyrogen-free water, % of dendritic cells; for CD86 Fluorescence: mean fluorescence value", "protocol": "(§1) The ability of products of the invention to induce maturation of predendritic cells into dendritic cells was assessed. The following parameters were measured: FITC-Dextran conjugate take-up and expression of CD83, CD86 surface markers.\n(§2) Mononucleated cells of peripheral blood are isolated from buffy coats of healthy donors. Purified monocytes by adherence selection are resuspended in RPMI-1640 medium containing 10% of foetal calf serum (FCS), GM-CSF and IL-4 (10 ng/ml) at a density of 1×10^6 cells/ml. Cells are divided into Petri Dishes (10×10^6 cells per dish) and cultured for 6 days with a change to fresh medium after 3 days. Cells thus obtained are called predendritic cells (DC-6). Maturation of predendritic cells into mature dendritic cells is achieved by incubating cells with diluted solutions of the products or LPS (positive control) for 3 more days (see product section below). At day 9 (DC-9), cells are harvested and analyzed for different indicators of dendritic cell maturation: assessment of CD83, CD86 surface marker expression as well as of their ability to take up FITC-Dextran conjugate. All these parameters are analyzed by an EPICS-XL-MCL model FACS (Coulter Immunology, Hialeah, […]).\n(§3) Expression of surface markers is given as % of mean fluorescence of LPS-activated cells (positive control); FITC-Dextran conjugate take-up rate is calculated based on take-up of cells maintained in basic medium and is expressed in %.\n(§4) Solutions are incubated at 37° C. for 20 minutes, subjected to vigorous stirring during 3 minutes and then diluted to 100 μg/ml in RPMI-1640 culture medium and used in diluted state at concentrations ranging from 10 μg/ml to 0.03 μg/ml. Reference Product: E. coli lipopolysaccharide (LPS, DIFCO, Detroit, Mich., U.S.A.), as a 5 mg/ml stock solution in PBS. An intermediate 100 μg/ml solution is prepared in RPMI 1640 culture medium. Concentrations of dilute solutions being tested range from 1 μg/ml to 0.03 μg/ml.\n(§5) In another series of experiments, all acyl dipeptide-like compounds were freeze-dried and directly redissolved into pyrogen-free water. Different products as well as LPS control are tested at a concentration of 10 μg/ml. Results are given as % of dendritic cells and mean fluorescence value for dextran phagocytosis or CD86 surface marker expression."}, "[4]": {"test_system": "predendritic cells (DC-6)", "assay": "dendritic cell differentiation test: FITC-Dextran take-up", "assay_type": "cell-based, human", "conditions": "for Dextran % CD: products redissolved in pyrogen-free water, % of dendritic cells; for Dextran Fluorescence: mean fluorescence value", "protocol": "as §1, §2, §3, §4, §5\nImmature dendritic cells (DC-6) resulting from monocyte differentiation, through the joint action of GM-CSF and IL-4, are able to incorporate FITC-Dextran conjugate. During the maturation process, cells lose their ability to incorporate the FITC-Dextran conjugate. Assays are conducted upon reaching the DC-9 differentiation stage."}, "[5]": {"conditions": "1 EU = 0.08 ng E. coli 055:B5 LPS"}, "[6]": {"conditions": "acyl-dipeptide-like compounds, diluted 0.1 mg/ml solution"}},
  "note": "Like-named read-outs stand apart in the source and are kept apart here.",
  "data": [
    {"smiles": "CCCCCCCCCCCC(=O)O[C@H](CCCCCCCCCCC)CC(=O)N[C@H](CC(=O)N[C@@H](CCCCN)C(=O)O)C(=O)NCCC[C@H](CO)NC(=O)C[C@H](O)CCCCCCCCCCC", "note": "[OM-197-Lys]", "values": [
      {"measurement": "Max concentration", "setting": "[1]", "result": 40, "unit": "µg/mL"},
      {"measurement": "EC50 conc", "setting": "[1]", "result": 2.23, "unit": "µg/mL"},
      {"measurement": "Min concentration", "setting": "[1]", "result": "< 0.47", "unit": "µg/mL"},
      {"measurement": "LAL EU/mg of product", "setting": "[2]", "result": "3 EU/mg of product"},
      {"measurement": "LAL ng of LPS equivalent per mg of product", "setting": "[2]", "result": "0.24 ng of LPS equivalent per mg of product"},
      {"measurement": "CD86 % CD", "setting": "[3]", "result": 21.2, "unit": "%"},
      {"measurement": "CD86 Fluorescence", "setting": "[3]", "result": 2.1},
      {"measurement": "Dextran % CD", "setting": "[4]; 10 μg/ml", "result": 12.1, "unit": "%"},
      {"measurement": "Dextran Fluorescence", "setting": "[4]; 10 μg/ml", "result": 0.5}
    ]},
    {"smiles": "CCCCCCCCCCCC(=O)O[C@H](CCCCCCCCCCC)CC(=O)N[C@H](CC(=O)O)C(=O)NCCC[C@H](CO)NC(=O)C[C@H](O)CCCCCCCCCCC", "note": "[OM-197-MC, N—[(R)-3-dodecanoyloxytetradecanoyl]-D-aspartic acid, α-N-{(4R)-5-hydroxy-4[(R)-3-hydroxytetradecanoylamino]-pentyl}amide]", "values": [
      {"measurement": "Max concentration", "setting": "[1]", "result": 51, "unit": "µg/mL"},
      {"measurement": "EC50 conc", "setting": "[1]", "result": 1.23, "unit": "µg/mL"},
      {"measurement": "Min concentration", "setting": "[1]", "result": 0.15, "unit": "µg/mL"},
      {"measurement": "LAL EU/mg of product", "setting": "[2]", "result": "88.6 EU/mg of product"},
      {"measurement": "LAL ng of LPS equivalent per mg of product", "setting": "[2]", "result": "7.4 ng of LPS equivalent per mg of product"},
      {"measurement": "concentration inducing an increase in expression of CD83 and CD86 surface markers", "setting": "[3]; FIGS. 75 & 76", "result": "at least 1 μg/ml"},
      {"measurement": "decrease of phagocytic capacity", "setting": "[4]; 10 μg/ml", "result": 22, "unit": "%"},
      {"measurement": "effect on phagocytosis", "setting": "[4]; concentrations lower than 3 μg/ml", "result": "no effect on phagocytosis"},
      {"measurement": "concentration inducing differentiation of DC-6 cells into DC-9 cells", "setting": "[4]; summary of phagocytosis and marker data", "result": "greater than 1 μg/ml"}
    ]},
    {"smiles": "CCCCCCCCCCCC(=O)O[C@H](CCCCCCCCCCC)CC(=O)N[C@H](CC(=O)O)C(=O)NCCC[C@H](COC(=O)CCCCCNC(=O)CCC(=O)OC[C@H]1O[C@@H](n2cc(C)c(=O)[nH]c2=O)C[C@@H]1N=[N+]=[N-])NC(=O)C[C@H](O)CCCCCCCCCCC", "note": "[OM-197-MC-AC-Succ-AZT]", "values": [
      {"measurement": "Max concentration", "setting": "[1]", "result": "> 100", "unit": "µg/mL"},
      {"measurement": "EC50 conc", "setting": "[1]", "result": "> 74.89", "unit": "µg/mL"},
      {"measurement": "Min concentration", "setting": "[1]", "result": 55.98, "unit": "µg/mL"},
      {"measurement": "LAL ng of LPS equivalent per mg of product", "setting": "[2]; [5]", "result": "0.11 ng of LPS equivalent per mg of product"},
      {"measurement": "LAL EU/mg of product", "setting": "[2]; [6]", "result": "1.34 EU/mg of product"},
      {"measurement": "CD86 % CD", "setting": "[3]", "result": 81.4, "unit": "%"},
      {"measurement": "CD86 Fluorescence", "setting": "[3]", "result": 6.1},
      {"measurement": "ability to induce differentiation of predendritic cells into dendritic cells", "setting": "[4]; 10 μg/ml", "result": "significant ability to induce differentiation into dendritic cells"},
      {"measurement": "Dextran % CD", "setting": "[4]; 10 μg/ml", "result": 62.2, "unit": "%"},
      {"measurement": "Dextran Fluorescence", "setting": "[4]; 10 μg/ml", "result": 4.8}
    ]},
    {"smiles": "CCCCCCCCCCCC(=O)O[C@H](CCCCCCCCCCC)CC(=O)N[C@H](CC(=O)O)C(=O)NCCC[C@H](COC(=O)CCCCCNC(=O)CCC(=O)OC[C@@H]1C=C[C@H](n2cc(C)c(=O)[nH]c2=O)O1)NC(=O)C[C@H](O)CCCCCCCCCCC", "note": "[OM-197-MC-AC-Succ-d4T]", "values": [
      {"measurement": "Max concentration", "setting": "[1]", "result": 12.5, "unit": "µg/mL"},
      {"measurement": "EC50 conc", "setting": "[1]", "result": 1.15, "unit": "µg/mL"},
      {"measurement": "Min concentration", "setting": "[1]", "result": 0.56, "unit": "µg/mL"},
      {"measurement": "LAL ng of LPS equivalent per mg of product", "setting": "[2]; [5]", "result": "0.08 ng of LPS equivalent per mg of product"},
      {"measurement": "LAL EU/mg of product", "setting": "[2]; [6]", "result": "1.05 EU/mg of product"},
      {"measurement": "CD86 % CD", "setting": "[3]", "result": 25.9, "unit": "%"},
      {"measurement": "CD86 Fluorescence", "setting": "[3]", "result": 2.4},
      {"measurement": "Dextran % CD", "setting": "[4]; 10 μg/ml", "result": 11.6, "unit": "%"},
      {"measurement": "Dextran Fluorescence", "setting": "[4]; 10 μg/ml", "result": 0.5}
    ]},
    {"smiles": "CCCCCCCCCCCC(=O)O[C@H](CCCCCCCCCCC)CC(=O)N[C@H](CC(=O)O)C(=O)NCCC[C@H](COC(=O)CCCCC(O)CO)NC(=O)C[C@H](O)CCCCCCCCCCC", "note": "(stereo partly drawn) [OM-197-MC-FV5, N—[(R)-3-dodecanoyloxytetradecanoylamino]-D-aspartic acid, α-N-{(4R)-5-hydroxy-4-[(R)-3-hydroxytetra-decanoylamino]-pentyl}amide 5-O-(6,7-dihydroxyheptanoate)]", "values": [
      {"measurement": "Max concentration", "setting": "[1]", "result": 16, "unit": "µg/mL"},
      {"measurement": "EC50 conc", "setting": "[1]", "result": 2.56, "unit": "µg/mL"},
      {"measurement": "Min concentration", "setting": "[1]", "result": 0.67, "unit": "µg/mL"},
      {"measurement": "LAL EU/mg of product", "setting": "[2]", "result": "49.3 EU/mg of product"},
      {"measurement": "LAL ng of LPS equivalent per mg of product", "setting": "[2]", "result": "3.9 ng of LPS equivalent per mg of product"},
      {"measurement": "CD86 % CD", "setting": "[3]", "result": 74.5, "unit": "%"},
      {"measurement": "CD86 Fluorescence", "setting": "[3]", "result": 5.6},
      {"measurement": "Dextran % CD", "setting": "[4]; 10 μg/ml", "result": 86.5, "unit": "%"},
      {"measurement": "Dextran Fluorescence", "setting": "[4]; 10 μg/ml", "result": 6.4}
    ]},
    {"smiles": "CCCCCCCCCCCC(=O)O[C@H](CCCCCCCCCCC)CC(=O)N[C@H](CC(=O)O)C(=O)NCCC[C@H](COC(=O)CCC(=O)O)NC(=O)C[C@H](O)CCCCCCCCCCC", "note": "[OM-197-MC-Succ]", "values": [
      {"measurement": "Max concentration", "setting": "[1]", "result": 16, "unit": "µg/mL"},
      {"measurement": "EC50 conc", "setting": "[1]", "result": 0.89, "unit": "µg/mL"},
      {"measurement": "Min concentration", "setting": "[1]", "result": 0.22, "unit": "µg/mL"},
      {"measurement": "LAL EU/mg of product", "setting": "[2]", "result": "5.3 EU/mg of product"},
      {"measurement": "LAL ng of LPS equivalent per mg of product", "setting": "[2]", "result": "0.42 ng of LPS equivalent per mg of product"},
      {"measurement": "CD86 % CD", "setting": "[3]", "result": 34.9, "unit": "%"},
      {"measurement": "CD86 Fluorescence", "setting": "[3]", "result": 3.0},
      {"measurement": "Dextran % CD", "setting": "[4]; 10 μg/ml", "result": 35.5, "unit": "%"},
      {"measurement": "Dextran Fluorescence", "setting": "[4]; 10 μg/ml", "result": 3.0}
    ]}
  ]
}
